Data on 2 compounds can be found in patent US6858645B2, “Tartrate salts of (R) -3-N,N- dicyclobutylamino-8-fluoro-3,4-dihydro-2H-1- benzopyran-5-carboxamide” (AstraZeneca AB, priority 1997, dated 2005).

Where only a bound is given, the exact number is not on record here.

The conditions of data set [1]: background statement on the salt disclosed in WO 95/11891; cited from earlier work.
The nature of data set [2]: Moisture sorption analysis (absorption and desorption), VTI microbalance, as a measure of physical stability. The format is physicochemical. Particulars: 25° C. As for the experimental part: Determination of Stability […] The moisture sorption analysis, absorption and desorption, respective was performed using a VTI microbalance, Model […] (VTI Corporation, USA) linked to an IBM PC. The relative humidity (RH) within the balance was monitored using a dew point analyser. […] The desorption profile was also obtained.

For data set [3] the following is noted: water firmly bound in crystal lattice.
For data set [4] the following is noted: thermogravimetric measurement.

For the compound `Cl.NC(=O)c1ccc(F)c2c1C[C@@H](N(C1CCC1)C1CCC1)CO2` [HCl salt, (R)-3-N,N-dicyclobutylamino-8-fluoro-3,4-dihydro-2H-1-benzopyran-5-carboxamide, reference compound], the “hygroscopicity / physical stability during manufacturing and storage” value in data set [1] was “hygroscopic and thus physically unstable”. In addition, in data set [2] (85% relative humidity), the “behaviour at high relative humidity” value is on record as “exhibits deliquescence” and the moisture taken up result is listed as “approximately 20 % w/w”.

For the compound `NC(=O)c1ccc(F)c2c1C[C@@H](N(C1CCC1)C1CCC1)CO2.O.O=C(O)C(O)C(O)C(=O)O` [Example 2, (R)-3-N,N-dicyclobutylamino-8-fluoro-3,4-dihydro-2H-1-benzopyran-5-carboxamide Hydrogen (2R,3R)-Tartrate Monohydrate], the “heating temperature up to which crystal water is not released” value in data set [3] was “up to 70 °C”. In addition, in data set [4], the “initial weight loss (thermogravimetric)” value is 4.104 % w/w. Besides, the “RH at which significant uptake of moisture was recorded” value in data set [2] (RH steps of 5%) was no less than 60%. Further, in data set [2] (RH of 90%), the moisture absorbed is 2.5 % (w/w). In data set [2] (desorption after exposure up to 90% RH), the desorption profile result is on record as “the moisture uptake is reversible”.
